According to US20040116348A1, “Polymer-linker-drug conjugates for targeted drug delivery” (priority 2002, published 2004):

Tests used:
[1] = system: HT-1080 (a human fibrosarcoma line); test: MTT cytotoxicity, HT-1080; format: cell-based
Description: (§1) Open circles in FIGS. 6A-F represent free doxorubicin and closed circles represent LIG-doxorubicin.
(§2) Cell survival was assayed using an indirect colorimetric […] (MTT assay, e.g., see Alley et al., Cancer Res. 48:589, 1988). The tetrazolium salt MTT is metabolized by NAD-dependent dehydrogenase to form a colored reaction product and the amount of dye formed directly correlates with the number of viable cells. The formula for calculating % survival is given by:
(§3) %survival=(Ti−Tz)/(C−Tz) if Ti≧Tz or
(§4) %survival=(Ti−Tz)/Tz if Ti<Tz
(§5) where Ti=Net MTT reading of test growth in the presence of drugs; Tz=Net MTT reading at time zero with respect to the drug test; and C=Net MTT reading of control growth (see Grever et al., Seminars in Oncology, 19:622, 1992 and Boyd and Paull, Drug Development Research 34:91, 1995).
(§6) The cytotoxicity of methotrexate and various peptidyl-methotrexates were compared in order to assess bulk tolerance. The peptidyl-methotrexates were prepared by linking short peptides of three to four amino acids to methotrexate. […] Methotrexate was covalently coupled to the N-terminal end of the peptides via the γ-carboxyl of its glutamic acid (Nagy et al., Proc. Nat. Acad. Sci. USA 90:6373, 1993). […] Cytotoxicity was assayed as described above in Example 4. […] Example 8 describes the synthesis of certain dextran-oligopeptide-methotrexate conjugates.

[2] = system: RT-112 (human urinary bladder transitional carcinoma line); test: MTT cytotoxicity, RT-112; format: cell-based
Description: as §2, §3, §4, §5
The cytotoxicity of methotrexate and various peptidyl-methotrexates were compared in order to assess bulk tolerance. The peptidyl-methotrexates were prepared by linking short peptides of three to four amino acids to methotrexate. The peptides were chosen to represent appropriate cleavage fragments from the MMP-2 sensitive substrate peptide IPVGLIG that was characterized in Examples 1-2. Methotrexate was covalently coupled to the N-terminal end of the peptides via the γ-carboxyl of its glutamic acid (Nagy et al., Proc. Nat. Acad. Sci. USA 90:6373, 1993). […]

human tumor cell lines = test: MTT cytotoxicity, overall statement over the panel of human tumor cell lines; format: cell-based; details: three human tumor cell lines
Description: as §2, with “by: […]” for “by:”

[3] = system: BT-20 (a human breast carcinoma line); test: MTT cytotoxicity, BT-20; format: cell-based
Description: as §1, §2, §3, §4, §5, §6

[4] = system: PC-3 (a human prostate tumor cell line); test: MTT cytotoxicity, PC-3; format: cell-based
Description: as §1, §2, §3, §4, §5

[5] = system: MGH-U1 (a human bladder cell line); test: MTT cytotoxicity, MGH-U1; format: cell-based
Description: as §1, §2, §3, §4, §5

[6] = system: KK-47 (a human bladder tumor cell line); test: MTT cytotoxicity, KK-47; format: cell-based
Description: as §1, §2, §3, §4, §5

[7] = system: U-87 (a human glioblastoma cell line); test: MTT cytotoxicity, U-87; format: cell-based
Description: as §1, §2, §3, §4, §5

HT-1080 tumors = test: In vivo anti-tumor efficacy in SCID mice bearing HT-1080 tumors; details: end of study; 50 mg methotrexate/kg i.p. on day 1, 8 and 15
Description: Each group included three mice.
The dosage chosen for these experiments was based on the reported optimum dosage of free methotrexate for treating tumor-bearing mice (Burger et al., Int. J. Cancer 92:718, 2001). Three weekly injections at 50 mg of methotrexate/kg of body weight was half the maximum tolerated dosage. In another set of experiments the dosage was increased to three weekly injections of 100 mg/kg, or to injections of 50 mg/kg twice per week.

[8] = Body weight change as indicator of toxic side effects in SCID mice bearing HT-1080 tumors; details: 50 mg methotrexate/kg i.p. on day 1, 8 and 15
Description: After 7-10 days, tumors of size 150-300 mm^3 were established on each mouse. […] Weight and tumor size were monitored three times a week. Tumor size was calculated as width^2×length×0.52. […] As a second control, another group of mice were injected with phosphate buffered saline. Each group included three mice.

SMILES | cytotoxicity (% survival, MTT) [1] | cytotoxicity (% survival, MTT) [2] | cytotoxicity relative to free methotrexate (human tumor cell lines) | cytotoxicity (% survival, MTT) [3] | cytotoxicity (% survival, MTT) [4] | cytotoxicity (% survival, MTT) [5] | cytotoxicity (% survival, MTT) [6] | cytotoxicity (% survival, MTT) [7] | tumor growth suppression compared to saline control (HT-1080 tumors) [%] | body weight drop compared to initial weight [8] [%]
CC(C)[C@H](NC(=O)[C@@H]1CCCN1C(=O)CC[C@H](NC(=O)c1ccc(N(C)Cc2cnc3nc(N)nc(N)c3n2)cc1)C(=O)O)C(=O)NCC(=O)O [methotrexate-PVG] | cytotoxic | cytotoxic | comparable | cytotoxic | – | – | – | – | – | –
CC[C@H](C)[C@H](NC(=O)[C@@H](N)CC(C)C)C(=O)NCC(=O)N[C@H]1C[C@H](O[C@H]2C[C@](O)(C(=O)CO)Cc3c(O)c4c(c(O)c32)C(=O)c2c(OC)cccc2C4=O)O[C@@H](C)[C@H]1O [LIG-doxorubicin] | cytotoxic | – | – | cytotoxic | cytotoxic | cytotoxic | cytotoxic | cytotoxic | – | –
CN(Cc1cnc2nc(N)nc(N)c2n1)c1ccc(C(=O)N[C@@H](CCC(=O)O)C(=O)O)cc1 [methotrexate] | – | – | – | – | – | – | – | – | 48 | 13
